Patent US7053249B2, “Metal chelates and methods of using them for time-resolved fluorescence” (IDEXX Laboratories, Inc., priority 2002, dated 2006)

Assays:
[1] = pH range of stable chelate formation; type: physicochemical; settings: Eu chelate
From the text: (§1) As mentioned earlier, it is necessary to form the enolate of the dicarbonyl compound for complex formation with metal to occur. […] It is usually (by not universally) desirable to stay below pH 9.0 to allow chelate stability under physiological assay conditions.

[2] = pKa of the enolic carbon of the β-diketone ligands; settings: β-diketone ligand
From the text: as §1

SMILES: O=C(CC(=O)c1ccc2ccccc2c1)c1cc(F)cc(F)c1 [compound 4]
- pH above which a stable chelate is formed [1]: > 4.5 pH
- pKa for the enolic carbon [2]: ~4.2
